How the values were obtained:
LDL = test: Protection against LDL oxidation by copper (conjugated diene formation); type: biochemical; settings: for antioxidant properties on LDL oxidation by copper (in words): FIGS. 1-1 to 1-14; for lag phase of conjugated diene formation / rate of conjugated diene formation: 10^−4M
Procedure: LDL oxidation is an important alteration and plays a predominant role in the establishment and development of atherosclerosis (Jurgens G et al., 1987). […] Unless otherwise indicated, the reagents were from Sigma (St Quentin, France). LDL were prepared according to the method described by (Havel R J et al., 1955). The solutions of test compounds were prepared at 10^−2 M concentration in bicarbonate buffer (pH 9) and diluted in PBS to obtain final concentrations ranging from 0.1 to 100 μM for a total ethanol concentration of […]. Prior to oxidation, EDTA was removed from the LDL preparation by dialysis. Oxidation then took place at 30° C. by addition of 100 μl of 16.6 μM CuSO4 solution to 160 μL of LDL (125 μg protein/ml) and 20 μl of a test compound solution. The formation of dienes, the species under observation, was followed by measuring optical density at 234 nm in the samples treated with the compounds but in the presence or absence of copper. Optical density at 234 nm was measured every 10 minutes for 8 hours in a thermostated spectrophotometer (Tecan Ultra 380). The compounds were considered to have antioxidant activity when they induced a longer lag phase and reduced the rate of oxidation and the amount of dienes formed in comparison with the control sample.

[1] = system: hApoE2 Knock-in transgenic mice; test: Effects on triglycerides and cholesterol metabolism in vivo; design: species or system mouse
Procedure: Treatment of animals: hApoE2 knock-in transgenic mice were kept on a 12-hour light/dark cycle at a constant temperature of 20±3° C. After a 1 week acclimation, mice were separated in groups of 6 animals selected such that the distribution of their body weight and plasmatic lipid levels determined before the experiment were uniform. The test compounds were suspended in carboxymethylcellulose and administered by intragastric gavage at the indicated doses, once a day for 7 or 8 days. Animals had access to food and water ad libitum. At the end of the experiment the animals were weighed and sacrificed under anesthesia. Blood was collected on EDTA. Plasma was prepared by centrifugation at 3000 rpm for 20 minutes. Organs were harvested, frozen in liquid nitrogen and stored at −80° C. for subsequent analysis.
Measurement of serum lipids: Serum lipid concentrations (total cholesterol and triglycerides) were determined by a colorimetric assay (Boehringer, Mannheim, Germany) according to the supplier's instructions.

human PPARα = biological target: T1, human PPARα (Homo sapiens, UniProt Q07869); test: PPARα/Gal4 transactivation system; type: cell-based; settings: for maximum induction factor: at the 10 or 1 μm concentrations
T1 construct: expressed in transfected cells; host or cells: RK13 or COS-7
T1 sequence (Q07869 239-466 limits assumed): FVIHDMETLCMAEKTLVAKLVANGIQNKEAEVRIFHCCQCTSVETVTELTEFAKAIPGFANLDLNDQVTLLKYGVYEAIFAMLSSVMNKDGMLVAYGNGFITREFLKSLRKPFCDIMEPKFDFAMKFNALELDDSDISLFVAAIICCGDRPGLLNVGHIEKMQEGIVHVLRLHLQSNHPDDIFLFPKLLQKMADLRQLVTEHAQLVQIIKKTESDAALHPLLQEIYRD
Procedure: PPAR activation was tested in vitro in RK13 or COS-7 fibroblast cell lines by measuring the transcriptional activity of chimeras composed of the DNA binding domain of the yeast Gal4 transcription factor and the ligand binding domain of the different PPARs. These latter results were then confirmed in cell lines according to the following protocols.
Culture protocols: RK13 were from ECACC (Porton Down, UK) and were grown in DMEM medium supplemented with 10% (V/V) fetal calf serum, 100 U/ml penicillin (Gibco, Paisley, UK) and 2 mM L-glutamine (Gibco, Paisley, UK). COS-7 cells were from ATCC and were grown in DMEM medium supplemented with 10% (V/V) fetal calf serum, 1% penicillin/streptomycine (Biochrom, AG), 1% of amino acids (Gibco) and 1% sodium pyruvate (Gibco).
The culture medium was changed every two days. Cells were kept at 37° C. in a humidified 95% air/5% CO2 atmosphere.
Description of plasmids used for transfection: The plasmids Gal4(RE)_TkpGL3, pGal4-hPPARα, pGal4-hPPARγ, pGal4-hPPARδ and pGal4-φ have been described in the literature (Raspe E et al., 1999). The pGal4-hPPARα, pGal4-hPPARγ and pGal4-hPPARδ constructs were obtained by cloning into the pGal4-φ vector PCR-amplified DNA fragments corresponding to the DEF domains of the human PPARs nuclear receptors.
Transfection of RK13: RK13 cells were seeded in 24-well culture dishes at 5×10^4 cells/well and transfected for 2 hours with the reporter plasmid Gal4(RE)_TkpGL3 (50 ng/well), the expression vectors pGal4-φ, pGal4-hPPARα, pGal4-hPPARγ and pGal-hPPARδ (100 ng/well) and the transfection efficiency control vector pRL-CMV (1 ng/well) according to the previously described protocol (Raspe E, Madsen L, Lefebvre A M, Leitersdorf I, Gelman L, Peinado-Onsurbe J, Dallongeville J, Fruchart J C, Berge R and Staels B, 1999), then incubated for 36 hours with the test compounds. RK13 cells were incubated with the different compounds at concentrations of 10, 30 and 100 μM or 1, 10 and 100 μM for 24 hours. At the end of the experiment, the cells were lysed (Gibco, Paisley, UK) and luciferase activity was determined with a Dual-Luciferase™ Reporter Assay System kit (Promega, Madison, Wis., USA) according to the supplier's instructions. The protein content of the cell extracts was then measured with the Bio-Rad Protein Assay (Bio-Rad, Munich, Germany) as directed by the supplier.
Transfection of COS7: Cells in suspension are transfected, in the presence of 10% (V/V) fetal calf serum, with 150 ng of DNA per well with a pGal4-PPAR/Gal4(RE)_TkpGL3 ratio of 1/10. Cells are then seeded in 96 well plates (4×10^4 cells/well) and incubated for 24 hours at 37° C. Activation with compounds is performed on 24 hours at 37° C. in culture medium without serum. At the end of the activation period, cells are lysed and luciferase activity is determined, using the Steady Glow Luciferase Kit (Promega), according to the supplier's instructions.

[2] = system: Human normal primary fibroblasts; test: Antioxidant properties on cell cultures (carboxy-H2DCFDA fluorescence, AAPH stress), fibroblasts; type: cell-based; settings: compounds at 25 μM for 24 h, AAPH 750 μM
Procedure: (§1) The reduction in the intensity of the emitted fluorescence signal was determined in cells treated with the compounds in the following manner.
(§2) Prior to stress the cells with an oxidative agent such as AAPH (CAS number 2997-92-4), cells are incubated with compounds of interest at 25 μM for 24 h. Then the culture medium is discarded and cells are rinsed two times with PBS. Cells are then incubated 30 min at 37° C. with a cell-permeant indicator for reactive oxygen species that is nonfluorescent until the acetate groups are removed by intracellular esterases and oxidation occurs within the cell 5-(and-6)-carboxy-2′,7′-dichlorodihydrofluorescein diacetate (carboxy-H2DCFDA). The probes are prepared in PBS and incubated at the final concentration of 25 μM. After the incubation with the probe, cells are rinsed and incubated another 30 min with the oxidative solution containing AAPH at 750 μM in culture medium without phenol red and serum.
(§3) The fluorescence is then measured with a fluorimeter with the following wavelength, […].
(§4) Two different cell types have been tested with the inventive compounds. Human normal primary fibroblasts and HaCat cells which are a human keratinocyte cell line.

HaCat cells = test: Antioxidant properties on cell cultures (carboxy-H2DCFDA fluorescence, AAPH stress), keratinocytes; type: cell-based, human; settings: compounds at 25 μM for 24 h, AAPH 750 μM
Procedure: as §1, §2, §3, §4

[3] = FIG. 1-9, copper alone 80 minutes
[4] = FIG. 1-12, copper alone 120 minutes

For `Cc1cc(/C=C/C(=O)c2ccc(Cl)cc2O)cc(C)c1OC(C)(C)C(=O)O` [Compound 7, 1-[2-hydroxy-4-chlorophenyl]-3-[3,5-dimethyl-4-carboxydimethylmethyloxyphenyl]prop-2-en-1-one], the “antioxidant properties on LDL oxidation by copper (in words)” value (“antioxidant properties on LDL oxidation” for short) (LDL) was “antioxidant properties”, the “cholesterol in lipoparticle subfraction (exclusion chromatography)” value ([1]; gavage 200 mg/kg for 7 days) was “decreased” and the “plasma concentration of cholesterol” value ([1]; gavage 200 mg/kg for 7 days) was “decrease”. The “plasma concentration of triglycerides” value ([1]; gavage 200 mg/kg for 7 days) was “decrease”, the “triglycerides in lipoparticle subfraction (exclusion chromatography)” value ([1]; gavage 200 mg/kg for 7 days) was “decreased” and the “induction factor (luminescent signal relative to untreated cells)” value (human PPARα; 30 μM) was 50.
`COc1ccccc1C(=O)/C=C/c1cc(C)c(OC(C)(C)C(=O)O)c(C)c1` [Compound 31, 1-[2-methoxyphenyl]-3-[3,5-dimethyl-4-carboxydimethylmethyloxyphenyl]prop-2-en-1-one] was tested, and the “lag phase of conjugated diene formation” value (LDL; [3]) was 139 min, the “rate of conjugated diene formation” value (LDL; FIG. 1-10, copper alone 1.9) was 1.6 nmol/min/mg of LDL and the “induction factor (luminescent signal relative to untreated cells)” value (human PPARα; 10 μM) was 15.5.
With `COc1cc(/C=C/C(=O)c2ccccc2O)cc(OC)c1OC(C)(C)C(=O)O` [Compound 5, 1-[2-hydroxyphenyl]-3-[3,5-dimethoxy-4-carboxydimethylmethyloxyphenyl]prop-2-en-1-one] the “antioxidant properties on LDL oxidation” value (LDL) was “antioxidant properties”.
For `Cc1cc(/C=C/C(=O)c2ccccc2O)cc(C)c1OC(C)(C)C(=O)O` [Compound 11, 1-[2-hydroxyphenyl]-3-[3,5-dimethyl-4-carboxydimethylmethyloxyphenyl]prop-2-en-1-one], the “induction factor (luminescent signal relative to untreated cells)” value (human PPARα; 100 μM) was 10.
`COc1cc(/C=C/C(=O)c2ccc(Cl)cc2O)cc(OC)c1OC(C)(C)C(=O)O` [Compound 6, 1-[2-hydroxy-4-chlorophenyl]-3-[3,5-dimethoxy-4-carboxydimethylmethyloxyphenyl]prop-2-en-1-one] was tested, and the “antioxidant properties on LDL oxidation” value (LDL) was “antioxidant properties”.
With `Cc1cc(/C=C/C(=O)c2ccc(Br)cc2O)cc(C)c1OC(C)(C)C(=O)O` [Compound 25, 1-[2-hydroxy-4-bromophenyl]-3-[3,5-dimethyl-4-carboxydimethylmethyloxyphenyl]prop-2-en-1-one] the “lag phase of conjugated diene formation” value (LDL; FIG. 1-7, copper alone 82 minutes) was 120 min and the “maximum amount of conjugated dienes formed” value (from here on “maximum amount”) (LDL; FIG. 1-8, copper alone 393) was 378 nmol per mg of LDL.
In the case of `Cc1cc(-c2cc(=O)c3ccc(Cl)cc3o2)cc(C)c1OC(C)(C)C(=O)O` [Compound 35, 2-(3,5-dimethyl-4-carboxydimethylmethyloxyphenyl)-7-chloro-4H-1-benzopyran-4-one], the “lag phase of conjugated diene formation” value (LDL; [3]) is reported as 149 min and the “rate of conjugated diene formation” value (LDL; FIG. 1-10, copper alone 1.9) is reported as 1.5 nmol/min/mg of LDL.
For `COc1cc(Cl)ccc1C(=O)/C=C/c1cc(C)c(OC(C)(C)C(=O)O)c(C)c1` [Compound 37, 1-[2-methyloxy-4-chlorophenyl]-3-[3,5-dimethyl-4-carboxydimethylmethyloxyphenyl]prop-2-en-1-one], the “lag phase of conjugated diene formation” value (LDL; [4]) was 196 min, the “rate of conjugated diene formation” value (LDL; FIG. 1-13, copper alone 1.8) was 1.49 nmol/min/mg of LDL and the “maximum amount” value (LDL; FIG. 1-14, copper alone 372) was 338 nmol per mg of LDL. The maximum induction factor (human PPARα) was 27.
In the case of `Cc1c(C)c2c(c(C)c1O)CCC(C)(C(=O)O)O2` (stereo not shown) [Trolox, reference compound], the “% of oxidative reduction versus control cells” value [2] is reported as 60% and the “% of oxidative reduction versus control cells” value (HaCat cells) is reported as 46%.
For `CCCCCCCc1ccc(C(=O)/C=C/c2cc(C)c(OC(C)(C)C(=O)OC(C)(C)C)c(C)c2)cc1` [Compound 38, 1-[4-heptylphenyl]-3-[3,5-dimethyl-4-tertbutyloxycarbonyldimethylmethyloxyphenyl]prop-2-en-1-one], the “lag phase of conjugated diene formation” value (LDL; [4]) was 284 min, the “rate of conjugated diene formation” value (LDL; FIG. 1-13, copper alone 1.8) was 0.71 nmol/min/mg of LDL and the “maximum amount” value (LDL; FIG. 1-14, copper alone 372) was 244 nmol per mg of LDL. It also gave a maximum induction factor (human PPARα) of 22.
With `CCCCCCOc1ccccc1C(=O)/C=C/c1cc(C)c(OC(C)(C)C(=O)O)c(C)c1` [Compound 82, 1-[2-hexyloxyphenyl]-3-[3,5-dimethyl-4-carboxydimethylmethyloxyphenyl]prop-2-en-1-one] the plasma cholesterol ([1]; 50 mg/kg/day for 7 or 8 days, FIGS. 4-13, 4-15, 4-17, 4-19) was “decrease” and the plasma triglycerides ([1]; 50 mg/kg/day for 7 or 8 days, FIGS. 4-14, 4-16, 4-18, 4-20) was “decrease”.

Source: patent US7566737B2 (Genfit, priority 2002, dated 2009)
